Measured values published in PubChem BioAssay (NCI).
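Cells were grown in 96-well plates and exposed to each compound for 48 hours at five concentrations; endpoints were interpolated linearly between bracketing concentrations, or set to the highest concentration if not reached. GI50 is the concentration that inhibits growth by half. TGI denotes the concentration required for complete inhibition of growth.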

Assays:
Assay in all cases: NCI tumour cell line growth inhibition, 48 h
[1] = test system: NCI-H226 lung
[2] = test system: 786-0 renal
[3] = test system: RXF 393 renal
[4] = test system: SW-620 colon
[5] = test system: RPMI-8226 leukemia
[6] = test system: UACC-257 melanoma
[7] = test system: PC-3 prostate
[8] = test system: OVCAR-5 ovarian
[9] = test system: OVCAR-8 ovarian
[10] = test system: NCI/ADR-RES ovarian

SMILES | GI50 [1] | TGI [1] | GI50 [2] | TGI [2] | GI50 [3] | TGI [3] | GI50 [4] | TGI [4] | GI50 [5] | TGI [5] | GI50 [6] | TGI [6] | GI50 [7] | TGI [7] | GI50 [8] | TGI [8] | GI50 [9] | TGI [9] | GI50 [10] | TGI [10]
C=C1C(O)C2C(=C(C)C13CC3)C(=O)C(C)(C)C2OC (stereo not given) | > 100 µM | > 100 µM | > 100 µM | > 100 µM | > 100 µM | > 100 µM | > 100 µM | > 100 µM | 41.3 µM | > 100 µM | 44.4 µM | > 100 µM | > 100 µM | > 100 µM | > 100 µM | > 100 µM | 71.9 µM | > 100 µM | > 100 µM | > 100 µM
CCOC(=O)C1=C(N)Oc2c(sc3c(C)cccc23)C1c1ccc(F)cc1 (stereo not given) | 0.579 µM | 10.6 µM | 1.25 µM | 17.9 µM | 0.242 µM | 0.639 µM | 0.453 µM | 15.9 µM | 0.489 µM | 5.38 µM | 12.6 µM | 27.7 µM | 0.496 µM | 14.8 µM | 1.67 µM | 17.6 µM | 0.581 µM | 18.1 µM | 0.384 µM | 14.5 µM
Cc1cc(NCCCCNc2ccnc3cc(Cl)ccc23)nc(Nc2ccc(C(=O)N3CCCCC3)cc2)n1 | 2.62 µM | 7.81 µM | 1.42 µM | 2.97 µM | 1.24 µM | 2.73 µM | 1.46 µM | 3.04 µM | 0.239 µM | 1.04 µM | 1.89 µM | 3.42 µM | 1.32 µM | 3.24 µM | 3.04 µM | 9.22 µM | 2.34 µM | 5.49 µM | 3.04 µM | 11.4 µM
Oc1ccc(Oc2cnc3ccccc3n2)cc1 | > 100 µM | > 100 µM | > 100 µM | > 100 µM | 34.3 µM | > 100 µM | > 100 µM | > 100 µM | > 100 µM | > 100 µM | > 100 µM | > 100 µM | 54.7 µM | > 100 µM | > 100 µM | > 100 µM | > 100 µM | > 100 µM | > 100 µM | > 100 µM
CC(Cl)CN1c2ccccc2Sc2ccc(Cl)cc21 (stereo not given) | – | > 10 µM | – | > 10 µM | – | > 10 µM | – | > 10 µM | – | > 10 µM | – | > 10 µM | – | > 10 µM | – | > 10 µM | – | > 10 µM | – | > 10 µM
